The target of one assay is T1, his-galectin-3 (Homo sapiens, UniProt P17931).
T1 construct: purchased Abcam
T1 sequence (P17931 whole entry): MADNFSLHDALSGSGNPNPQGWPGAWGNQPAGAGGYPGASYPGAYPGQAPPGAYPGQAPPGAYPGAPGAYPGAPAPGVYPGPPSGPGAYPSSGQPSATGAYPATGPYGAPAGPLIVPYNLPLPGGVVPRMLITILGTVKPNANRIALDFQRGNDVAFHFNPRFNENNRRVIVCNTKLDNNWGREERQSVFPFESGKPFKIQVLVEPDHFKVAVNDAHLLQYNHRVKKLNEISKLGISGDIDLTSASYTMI
Briefly: TR-FRET assay (in vitro galectin-3 binding inhibitory activity test). The conditions noted are these: Table 1; compound at 20 μM; 60 nM his-galectin-3, 15 nM biotin-ASF; read-out: % Inhibitory activity (at 20 μM). An outline of the steps: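 Compound is premixed with his-galectin-3 (60 nM final), then biotin-ASF (15 nM), Tb anti-His antibody (2 nM) and streptavidin-d2 (20 nM) are added. After at least 3.5 hours at RT in HEPES/NaCl buffer with Tween 20 and BSA, TR-FRET is read at 615/665 nm. DMSO serves as the uninhibited control, ASF omission as background.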
For the compound `O=C(O[C@@H]1[C@@H](n2cc(-c3cc(F)c(F)c(F)c3)nn2)[C@@H](O)[C@@H](CO)O[C@@]12CCCO2)c1ccc(F)cc1F` [Compound A78, (5S,7R,8R,9S,10R)-8-hydroxy-7-(hydroxymethyl)-9-(4-(3,4,5-trifluorophenyl)-1H-1,2,3-triazol-1-yl)-1,6-dioxaspiro[4.5]decan-10-yl 2,4-difluorobenzoate], the inhibition at 20 µM was under 25%.
Consider `O=C(N[C@@H]1CCO[C@]12O[C@H](CO)[C@H](O)[C@H](n1cc(-c3cc(F)c(F)c(F)c3)nn1)[C@H]2O)c1cc2ccccc2s1` [Compound A124, N-((4R,5S,7R,8R,9S,10R)-8,10-dihydroxy-7-(hydroxymethyl)-9-(4-(3,4,5-trifluorophenyl)-1H-1,2,3-triazol-1-yl)-1,6-dioxaspiro[4.5]decan-4-yl)benzo[b]thiophene-2-carboxamide], for which the inhibition at 20 µM lay in the range of 50 to 75%.
For the compound `OC[C@H]1O[C@@]2(CCCO2)[C@H](OCc2cccc(F)c2)[C@@H](n2cc(-c3cc(F)c(F)c(F)c3)nn2)[C@H]1O` [Compound A91, (5S,7R,8R,9S,10R)-10-((3-fluorobenzyl)oxy)-7-(hydroxymethyl)-9-(4-(3,4,5-trifluorophenyl)-1H-1,2,3-triazol-1-yl)-1,6-dioxaspiro[4.5]decan-8-ol], the inhibition at 20 µM is under 25%.
Regarding `OC[C@H]1O[C@@]2(CCCO2)[C@H](OCc2cccnc2)[C@@H](n2cc(-c3cc(F)c(F)c(F)c3)nn2)[C@H]1O` [Compound A16, (5S,7R,8R,9S,10R)-7-(hydroxymethyl)-10-(pyridin-3-ylmethoxy)-9-(4-(3,4,5-trifluorophenyl)-1H-1,2,3-triazol-1-yl)-1,6-dioxaspiro[4.5]decan-8-ol acetate], the inhibition at 20 µM fell in the range of 25 to 50%.
On to `O=C(Cc1ccc(Cl)cc1)N[C@@H]1CCO[C@]12O[C@H](CO)[C@H](O)[C@H](n1cc(-c3cc(F)c(F)c(F)c3)nn1)[C@H]2O` [Compound A117, 2-(4-chlorophenyl)-N-((4R,5S,7R,8R,9S,10R)-8,10-dihydroxy-7-(hydroxymethyl)-9-(4-(3,4,5-trifluorophenyl)-1H-1,2,3-triazol-1-yl)-1,6-dioxaspiro[4.5]decan-4-yl)acetamide], for which the inhibition at 20 µM fell in the range of 50 to 75%.
Still for that read-out and setting: next, `COc1ccc2c(c1)CCC1(O2)O[C@H](CO)[C@H](O)[C@H](n2cc(-c3cc(F)c(F)c(F)c3)nn2)[C@H]1O` (single isomer, unassigned) [Compound A11, (3′R,4'S,5′R,6′R)-6′-(hydroxymethyl)-6-methoxy-4′-(4-(3,4,5-trifluorophenyl)-1H-1,2,3-triazol-1-yl)-3′,4′,5′,6′-tetrahydrospiro[chromane-2,2′-pyran]-3′,5′-diol]: 25 to 50%.
As for `OC[C@H]1O[C@@]2(CCCO2)[C@H](OCc2ccccn2)[C@@H](n2cc(-c3cc(F)c(F)c(F)c3)nn2)[C@H]1O` [Compound A17, (5S,7R,8R,9S,10R)-7-(hydroxymethyl)-10-(pyridin-2-ylmethoxy)-9-(4-(3,4,5-trifluorophenyl)-1H-1,2,3-triazol-1-yl)-1,6-dioxaspiro[4.5]decan-8-ol], the inhibition at 20 µM is 25 to 50%.
For `O=C(N[C@@H]1CCO[C@]12O[C@H](CO)[C@H](O)[C@H](n1cc(-c3cc(F)c(F)c(F)c3)nn1)[C@H]2O)c1cccc(OC(F)(F)F)c1` [Compound A122, N-((4R,5S,7R,8R,9S,10R)-8,10-dihydroxy-7-(hydroxymethyl)-9-(4-(3,4,5-trifluorophenyl)-1H-1,2,3-triazol-1-yl)-1,6-dioxaspiro[4.5]decan-4-yl)-3-(trifluoromethoxy)benzamide], the inhibition at 20 µM is 50 to 75%.
With `O=C(N[C@@H]1CCO[C@]12O[C@H](CO)[C@H](O)[C@H](n1cc(-c3cc(F)c(F)c(F)c3)nn1)[C@H]2O)C1CCCC1` [Compound A107, N-((4R,5S,7R,8R,9S,10R)-8,10-dihydroxy-7-(hydroxymethyl)-9-(4-(3,4,5-trifluorophenyl)-1H-1,2,3-triazol-1-yl)-1,6-dioxaspiro[4.5]decan-4-yl)cyclopentancarboxamide], the inhibition at 20 µM lay within 25 to 50%.
For `OC[C@H]1O[C@@]2(CCCCO2)[C@H](OCc2ccccn2)[C@@H](n2cc(-c3cc(F)c(F)c(F)c3)nn2)[C@H]1O` [Compound A50, (2R,3R,4S,5R,6S)-2-(hydroxymethyl)-5-(pyridin-2-ylmethoxy)-4-(4-(3,4,5-trifluorophenyl)-1H-1,2,3-triazol-1-yl)-1,7-dioxaspiro[5.5]undecan-3-ol], the inhibition at 20 µM is 25 to 50%.

The same assay, now with this note: Table 2; compound at 20 μM; 60 nM his-galectin-3, 15 nM biotin-ASF; read-out: % Inhibitory activity (at 20 μM).
In the case of `O=C(N[C@@H]1CCO[C@]12O[C@H](CO)[C@H](O)[C@H](n1cc(-c3cc(F)c(F)c(F)c3)nn1)[C@H]2O)c1cccc2ncccc12` [Compound A212, N-((4R,5S,7R,8R,9S,10R)-8,10-dihydroxy-7-(hydroxymethyl)-9-(4-(3,4,5-trifluorophenyl)-1H-1,2,3-triazol-1-yl)-1,6-dioxaspiro[4.5]decan-4-yl)quinoline-5-carboxamide], the inhibition at 20 µM is over 75%.
Same read-out and setting: next, `O=C(N[C@@H]1CCO[C@]12O[C@H](CO)[C@H](O)[C@H](n1cc(-c3cc(F)c(F)c(F)c3)nn1)[C@H]2O)c1cccc(-c2ccccc2Br)c1` [Compound A179, 2′-bromo-N-((4R,5S,7R,8R,9S,10R)-8,10-dihydroxy-7-(hydroxymethyl)-9-(4-(3,4,5-trifluorophenyl)-1H-1,2,3-triazol-1-yl)-1,6-dioxaspiro[4.5]decan-4-yl)-[1,1′-biphenyl]-3-carboxamide]: 50 to 75%; `O=C(N[C@@H]1CCO[C@]12O[C@H](CO)[C@H](O)[C@H](n1cc(-c3cc(F)c(F)c(F)c3)nn1)[C@H]2O)C1CCc2ccccc21` (stereo partly drawn) [Compound A163, N-((4R,5S,7R,8R,9S,10R)-8,10-dihydroxy-7-(hydroxymethyl)-9-(4-(3,4,5-trifluorophenyl)-1H-1,2,3-triazol-1-yl)-1,6-dioxaspiro[4.5]decan-4-yl)-2,3-dihydro-1H-indene-1-carboxamide]: 50 to 75%.

The same assay, now with this note: read-out: % Inhibitory activity (at 20 μM), Table 1; compound at 20 μM; 60 nM his-galectin-3, 15 nM biotin-ASF.
Turning to `O=C(c1cccc(Cl)c1)N1CCC[C@]2(C1)O[C@H](CO)[C@H](O)[C@H](n1cc(-c3cc(F)c(F)c(F)c3)nn1)[C@H]2O` [Compound A145, (3-chlorophenyl)((2R,3R,4S,5R,6R)-3,5-dihydroxy-2-(hydroxymethyl)-4-(4-(3,4,5-trifluorophenyl)-1H-1,2,3-triazol-1-yl)-1-oxa-8-azaspiro[5.5]undecan-8-yl)methanone], the inhibition at 20 µM is under 25%.
As to `O=C(OC1[C@@H](n2cc(-c3cc(F)c(F)c(F)c3)nn2)[C@@H](O)[C@@H](CO)O[C@@]12CCCO2)c1cccnc1` (stereo in doubt) [Compound A75, (5S,7R,8R,9S,10S)-8-hydroxy-7-(hydroxymethyl)-9-(4-(3,4,5-trifluorophenyl)-1H-1,2,3-triazol-1-yl)-1,6-dioxaspiro[4.5]decan-10-yl nicotinate], the inhibition at 20 µM was 25 to 50%.

Still in this assay, the particulars now being: read-out: % Inhibitory activity (at 20 μM), Table 2; compound at 20 μM; 60 nM his-galectin-3, 15 nM biotin-ASF.
Take `OC[C@H]1O[C@]2(OCC[C@H]2n2cc(-c3ccccc3Cl)nn2)[C@H](O)[C@@H](n2cc(-c3cc(F)c(F)c(F)c3)nn2)[C@H]1O` [Compound A204, (4R,5S,7R,8R,9S,10R)-4-(4-(2-chlorophenyl)-1H-1,2,3-triazol-1-yl)-7-(hydroxymethyl)-9-(4-(3,4,5-trifluorophenyl)-1H-1,2,3-triazol-1-yl)-1,6-dioxaspiro[4.5]decane-8,10-diol]: the inhibition at 20 µM was under 25%.

Still in this assay, the particulars now being: read-out: % Inhibitory activity (at 20 μM), Table 3, found values; compound at 20 μM; 60 nM his-galectin-3, 15 nM biotin-ASF.
Consider `O=C(OC1[C@@H](n2cc(-c3cc(F)c(F)c(F)c3)nn2)[C@@H](O)[C@@H](CO)O[C@@]12CCCO2)c1cccnc1` (stereo in doubt) [Compound A75, (5S,7R,8R,9S,10S)-8-hydroxy-7-(hydroxymethyl)-9-(4-(3,4,5-trifluorophenyl)-1H-1,2,3-triazol-1-yl)-1,6-dioxaspiro[4.5]decan-10-yl nicotinate], for which the inhibition at 20 µM was 32%.

The values are drawn from patent US20250026778A1 (TIUMBIO CO., LTD., priority 2021, published 2025).
